From US7858635B2 (priority 2005, dated 2010)

What was measured:
M1 muscarinic receptor = molecular target: T1, M1 muscarinic receptor (Homo sapiens, UniProt P11229); test: Functional mobilization of intracellular calcium (FLIPR, Fluo-3), M1-CHO cells; assay type: cell-based; settings: compound nos. 1-454; for Emax: read-out: M1 Efficacy; for M1 Activity: M1-CHO cells, calcium mobilization
T1 construct: expressed in transfected cells; host or cells: CHO cells (M1-CHO, under zeocin and G418 selection)
T1 sequence (P11229 1-460): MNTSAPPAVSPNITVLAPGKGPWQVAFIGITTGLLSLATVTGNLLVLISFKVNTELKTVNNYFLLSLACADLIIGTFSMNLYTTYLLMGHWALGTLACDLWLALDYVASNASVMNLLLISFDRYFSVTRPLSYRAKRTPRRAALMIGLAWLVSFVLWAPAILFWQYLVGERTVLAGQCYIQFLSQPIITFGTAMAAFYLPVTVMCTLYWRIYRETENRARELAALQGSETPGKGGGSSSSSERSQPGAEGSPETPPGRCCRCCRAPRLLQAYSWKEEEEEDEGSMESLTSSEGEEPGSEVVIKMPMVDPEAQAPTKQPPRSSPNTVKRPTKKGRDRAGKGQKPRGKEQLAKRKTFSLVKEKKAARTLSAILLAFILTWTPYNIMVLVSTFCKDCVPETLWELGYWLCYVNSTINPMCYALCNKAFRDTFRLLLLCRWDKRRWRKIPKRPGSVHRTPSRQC
Procedure: (§1) CHO cells expressing muscarinic receptors (M1 to M5) are grown as monolayers in tissue culture flasks at 37° C. in a humidified atmosphere containing 5% CO2 and passaged every 3-5 days. The growth media is Dulbecco's modified eagles medium (DMEM, Gibco Cat#12430-054), containing 25 mM Hepes and supplemented with Fetal Bovine Serum (Hyclone, cat# SH30071.03), 0.1 mM of MEM non-essential amino acids (GIBCO, Cat# 11140-050), 1 mM MEM Sodium Pyruvate (GIBCO Cat# 11360-070) and 100 units/ml of Penicillin G and 100 μg/ml of Streptomycin (GIBCO Cat# 15140-122). The recombinant muscarinic receptor cell lines are grown under antibiotic pressure with media containing 25 μm/ml zeocin and 500 μg/ml G418 (M1-CHO), 4 μg/ml puromycin, 50 μg/ml zeocin and 2.5 μm/ml blasticidin (M2 and M4-CHO) or 50 μg/ml zeocin and 4 μg/ml puromycin (M3 and M5-CHO).
(§2) Cells are harvested at 80-90% confluence using Versene (GIBCO Cat# 15040-066), collected by centrifugation and seeded 18-24 hrs prior to running the calcium assay at a density of 5,000-10,000 cells/well in […], clear-bottomed 384-well plates (BD Biocoat, poly-D-lysine, Cat#356663). The day of the experiment, the cells are washed with a plate washer (Bioteck Instruments, ELX 405) using bath1 buffer (140-mM NaCl, 4.5-mM KCL, 2-mM CaCl2, 1-mM MgCl2, 10-mM Hepes-Na, 10-mM Glucose, pH 7.4, with NaOH) containing 1 mM Probenecid. Next, the calcium dye Fluo-3 (25 μl/well of Fluo-3 μM at 4 μM, Molecular Probes F-1241, in Bath 1 buffer containing 1 mM Probenecid) is added to the 25 μl of Bath 1 remaining in each well after the plate wash and the dye is loaded at 37° C. in the tissue culture incubator for 60-90 min. The fluorescent dye is removed using the plate washer with Bath 1 containing 1 mM Probenecid, leaving 25 μl/well of this solution after the wash. Alternatively, cells can be loaded with the calcium indicator from Molecular Devices (Calcium 3 Assay Reagents, Cat # R7181) adding 5 μl of a 5× solution dye in Bath 1 containing 1 mM Probenecid (10 ml per dye flask cat# R7182 to generate a solution 20×) to 20 μl of the same buffer. After loading for 60 min, the experiment can be run without having to remove the dye.
(§3) Compounds are prepared at a 2× fold concentration in a 96-well plate (round bottom, Costar Corning cat# 3656), by reconstituting the pre-spotted compounds in bath 1 containing 1 mM probenecid. The final concentration DMSO is 0.5%, and the amount of DMSO is normalized across the assay plate. To determine an agonist action of the compounds on muscarinic receptors, the reconstituted compounds are added (25 μl compound/well) to the cell assay plate (containing 25 μl/well) using the multi-channel robotic system of the FLIPR 3 Instrument (Molecular Devices, Sunnyvale, Calif.). To determine a functional inhibitory action of the compounds on muscarinic receptors, the reconstituted compounds are added (25 μl compound/well) to the assay plate and pre-incubated for 15 min prior to adding 25 μl of Carbachol at 3× the EC80 for each muscarinic subtype. Alternatively, the compounds can be co-applied simultaneously with the agonist. In both assay modes, the fluorescence is recorded for 60 sec (excitation wavelength is […] and emission wavelength 540 nm) using the FLIPR 3 instrument.
(§4) The potency, efficacy and selectivity of the muscarinic compounds were evaluated by screening the compound activity across the whole family (M1 to M5 cells). Compounds were also screened for activity on other proteins such as other GPCRs and ion channels to determine selectivity on M4 receptors.

M4 muscarinic receptor = molecular target: T2, M4 muscarinic receptor (Homo sapiens, UniProt P08173); test: Functional mobilization of intracellular calcium (FLIPR, Fluo-3), M4-CHO cells; assay type: cell-based; settings: compound nos. 1-454; for Emax: read-out: M4 Efficacy; for M4 Activity: M4-CHO cells, calcium mobilization
T2 construct: expressed in transfected cells; host or cells: CHO cells (M4-CHO, under puromycin, zeocin and blasticidin selection)
T2 sequence (P08173 1-479): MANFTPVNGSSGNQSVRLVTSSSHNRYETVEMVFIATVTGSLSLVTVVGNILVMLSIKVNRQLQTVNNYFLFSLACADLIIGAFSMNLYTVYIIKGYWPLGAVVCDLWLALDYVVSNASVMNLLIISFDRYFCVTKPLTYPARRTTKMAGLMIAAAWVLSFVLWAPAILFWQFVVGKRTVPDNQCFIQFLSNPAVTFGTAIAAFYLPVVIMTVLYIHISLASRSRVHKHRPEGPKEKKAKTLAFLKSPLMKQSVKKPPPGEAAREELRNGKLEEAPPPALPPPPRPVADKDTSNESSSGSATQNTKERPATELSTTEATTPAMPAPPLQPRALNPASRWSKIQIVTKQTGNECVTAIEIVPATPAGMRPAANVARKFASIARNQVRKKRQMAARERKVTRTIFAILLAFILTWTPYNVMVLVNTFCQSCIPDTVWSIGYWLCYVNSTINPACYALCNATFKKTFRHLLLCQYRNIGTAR
Procedure: as §1, §2, §3, §4

[1] = 100% efficacy is the maximum response obtained with the Carbachol control

SMILES | Emax (M1 muscarinic receptor; [1]) [%] | M1 Activity (M1 muscarinic receptor) | Emax (M4 muscarinic receptor; [1]) [%] | M4 Activity (M4 muscarinic receptor) | M1 Efficacy (M1 muscarinic receptor; [1]) | M4 Efficacy (M4 muscarinic receptor; [1])
CCC(=O)CCN1CC2(CCN(C[C@@H]3C[C@H]4C=C[C@H]3C4)CC2)c2cc(F)ccc21 [compound 12] | < 65 | +++ (activity was measured to be less than or equal to 0.7 μM) | < 55 | ++ (activity was measured to be between 0.1 μM and 4.0 μM) |  | 
Fc1ccc2c(c1)C1(CCN(CC3CCC4CCC3C4)CC1)CN2 (stereo not drawn) [compound 13] | 65 to 85 | ++ (activity was measured to be between 0.7 μM and 3.0 μM) | < 55 | + (activity was measured to be greater than or equal to 4.0 μM) |  | 
CC(=O)N1CC2(CCN(CC3CCN(C(=O)O[C@@H]4CCOC4)CC3)CC2)c2cc(F)ccc21 [compound 14] | 65 to 85 | +++ (activity was measured to be less than or equal to 0.7 μM) | > 70 | +++ (activity was measured to be less than or equal to 0.1 μM) |  | 
CS(=O)(=O)N1CC2(CCN(C3CC4CCC(C3)N4C(=O)O[C@@H]3CCOC3)CC2)c2cc(F)ccc21 (stereo partly drawn) [compound 16] | 65 to 85 | +++ (activity was measured to be less than or equal to 0.7 μM) | 55 to 70 | +++ (activity was measured to be less than or equal to 0.1 μM) |  | 
CCOC(=O)N1CCC(N2CCC3(CC2)CN(C(=O)C2CCCC2)c2ccc(F)cc23)CC1 [compound 17] | < 65 | ++ (activity was measured to be between 0.7 μM and 3.0 μM) | 55 to 70 | ++ (activity was measured to be between 0.1 μM and 4.0 μM) |  | 
c1ccc2c(c1)CCC21CCN(CC2CCOCC2)CC1 [compound 18] | < 65 | +++ (activity was measured to be less than or equal to 0.7 μM) | > 70 | ++ (activity was measured to be between 0.1 μM and 4.0 μM) |  | 
CCOC(=O)N1CCC(N2CCC3(CC2)CNc2ccc(Cl)cc23)CC1 [compound 19] | 65 to 85 | +++ (activity was measured to be less than or equal to 0.7 μM) | 55 to 70 | ++ (activity was measured to be between 0.1 μM and 4.0 μM) |  | 
CCOC(=O)N1CCC(CN2CCC3(CC2)CN(C(C)=O)c2ccc(OC(F)(F)F)cc23)CC1 [compound 21] | < 65 | ++ (activity was measured to be between 0.7 μM and 3.0 μM) | < 55 | + (activity was measured to be greater than or equal to 4.0 μM) |  | 
CCOC(=O)N1CCC(N2CCC3(CC2)CN(C(=O)N2CCCC2)c2ccc(F)cc23)CC1 [compound 22] | 65 to 85 | +++ (activity was measured to be less than or equal to 0.7 μM) | < 55 | + (activity was measured to be greater than or equal to 4.0 μM) |  | 
Cc1ccc2c(c1)C1(CCN([C@@H]3C[C@@H]4CC[C@@H]3C4)CC1)CN2 [compound 23] |  | ++ (activity was measured to be between 0.7 μM and 3.0 μM) |  | + (activity was measured to be greater than or equal to 4.0 μM) | + (efficacy was calculated to be 65% or less) | + (efficacy was calculated to be 55% or less)
Cc1cc(C(=O)N2CC3(CCN(C4CC5CCC(C4)N5C(=O)OC(C)C)CC3)c3cc(F)ccc32)nn1C (stereo not drawn) [compound 24] | < 65 | ++ (activity was measured to be between 0.7 μM and 3.0 μM) | < 55 | + (activity was measured to be greater than or equal to 4.0 μM) |  | 
COCCOC(=O)N1CCC(CN2CCC3(CC2)CN(C(C)=O)c2ccc(F)cc23)CC1 [compound 26] | 65 to 85 | +++ (activity was measured to be less than or equal to 0.7 μM) | < 55 | ++ (activity was measured to be between 0.1 μM and 4.0 μM) |  | 
CCC1CCC(N2CCC3(CC2)CN(C(C)=O)c2ccc(F)cc23)CC1 (stereo not drawn) [compound 27] | 65 to 85 | +++ (activity was measured to be less than or equal to 0.7 μM) | 55 to 70 | +++ (activity was measured to be less than or equal to 0.1 μM) |  | 
CCOC(=O)N1C2CCC1CC(N1CCC3(CC1)CN(C(=O)O[C@@H]1CCOC1)c1ccc(F)cc13)C2 (stereo partly drawn) [compound 28] | > 85 | +++ (activity was measured to be less than or equal to 0.7 μM) | 55 to 70 | ++ (activity was measured to be between 0.1 μM and 4.0 μM) |  | 
CC(=O)N[C@H]1CC2(CCN(CC3CC4CCC3CC4)CC2)c2ccccc21 (stereo partly drawn) [compound 29] | > 85 | +++ (activity was measured to be less than or equal to 0.7 μM) | > 70 | +++ (activity was measured to be less than or equal to 0.1 μM) |  | 
CCOC(=O)N1CCC(N2CCC3(CC2)CN(C(=O)OCC(C)C)c2ccc(F)cc23)CC1 [compound 30] | > 85 | +++ (activity was measured to be less than or equal to 0.7 μM) | > 70 | +++ (activity was measured to be less than or equal to 0.1 μM) |  | 
CCOC(=O)N1CCC(N2CCC3(CC2)C(=O)N(C)c2ccccc23)CC1 [compound 31] | > 85 | +++ (activity was measured to be less than or equal to 0.7 μM) | 55 to 70 | +++ (activity was measured to be less than or equal to 0.1 μM) |  | 
CN(C)C(=O)N1CC2(CCN(C3CC4CCC(C3)N4C(=O)OCCF)CC2)c2cc(F)ccc21 (stereo not drawn) [compound 32] | > 85 | +++ (activity was measured to be less than or equal to 0.7 μM) | 55 to 70 | +++ (activity was measured to be less than or equal to 0.1 μM) |  | 
